Measured values from patent US4618627A, “Catechol derivatives and pharmaceutical compositions thereof for inhibiting anaphylaxis (SRS-A)” (priority 1983, dated 1986).
pIC50: −log10 of the molar value.

Columns and labels:
[1] = tested on: antigen-induced SRS-A release; experiment: Passive peritoneal anaphylaxis (PPA) in rats: SRS-A release; assay type: in vivo, male Wistar rats; conditions: Rattus norvegicus, ip, 100 μg/kg i.p., 30 sec before antigen, DSCG value is mean of 3 rats (footnote 1)
Experimental: (A) Passive peritoneal anaphylaxis (PPA) in rats
The method was based on that of Orange et al^(1). Briefly, male Wistar rats weighing 275 to 325 g (Shizuoka Exp. Animal Agric, Coop. Assoc.) were sensitized by intraperitoneally (i.p.) injecting 5 ml of diluted (40-fold) mouse anti-DNP reaginic serum (PCA titer: 1280). After 4 hr, 5 ml of Tyrode solution containing 250 μg heparin and 2 mg DNP-BSA was injected i.p. Test drugs (100 μg/kg) were dissolved in 0.6 ml of saline and injected i.p. 30 sec before antigen administration. Five min. later, the rats were decapitated and the peritoneal fluid was collected by opening the peritoneal cavity into polycarbonate tubes in ice. The supernatant was separated for bioassay from the cellular residue by centrifugation at 2000 rpm for 5 min at 4° C.
Histamine and SRS-A were assayed using isolated guinea-pig ileum in the presence of 10^-7 M FPL-55712 and 10^-6 M mepyramine, respectively, in addition to 5×10^-7 M atropine. One unit of SRS-A refers to the concentration required to produce a contraction of the guinea-pig ileum equal in amplitude to that produced by 5 ng histamine base in that assay.

[2] = tested on: antigen-induced histamine release; experiment: Passive peritoneal anaphylaxis (PPA) in rats: histamine release; assay type: in vivo, male Wistar rats; conditions: 100 μg/kg i.p.; for inhibition at 0.1 mg/kg: Rattus norvegicus, ip, 30 sec before antigen, histamine, DSCG value is mean of 3 rats (footnote 1)
Experimental: (A) Passive peritoneal anaphylaxis (PPA) in rats The method was based on that of Orange et al^(1). […] After 4 hr, 5 ml of Tyrode solution containing 250 μg heparin and 2 mg DNP-BSA was injected i.p. Test drugs (100 μg/kg) were dissolved in 0.6 ml of saline and injected i.p. 30 sec before antigen administration. Five min. later, the rats were decapitated and the peritoneal fluid was collected by opening the peritoneal cavity into polycarbonate tubes in ice. The supernatant was separated for bioassay from the cellular residue by centrifugation at 2000 rpm for 5 min at 4° C. […] One unit of SRS-A refers to the concentration required to produce a contraction of the guinea-pig ileum equal in amplitude to that produced by 5 ng histamine base in that assay.

[3] = target: cyclooxygenase; experiment: Assay of cyclooxygenase; assay type: biochemical; conditions: enzyme fraction from mastocytoma P-815 cells, [1-14C]-arachidonic acid, 37° C., 7 min, Probit method; for pIC50: read-out: IC 50 Cyclooxygenase
Experimental: (§1) (B) Assay of 5-lipoxygenase and cyclooygenase
(§2) The method was based on that of Koshihara et al^(1). In the case of assay of 5-lipoxygenase activity, an enzyme fraction from mastocytoma P-815 cells (10^7 cells/ml) was incubated with 0.2 μCi [1-^14 C]-arachidonic acid (56.9 Ci/mol), 0.8 mM CaCl2, 2×10^-5 M indoemthacin and various concentrations of test drugs at 37° C. for 5 min. In the case of assay of cyclooxygenase activity, CaCl2 and indomethacin were omitted from the above incubation mixture and incubation was performed at 37° C. for 7 min. Both reactions were terminated by adjusting the pH of the mixture to 3.0 with HCl. After extraction of the products with 8 volume ethyl acetate, each extract was concentrated and applied to TLC plate. For the separation of HETEs and prostaglandins, thin-layer chromatography was carried out using the solvent system: petroleum ether/diethyl ether/acetic acid (50:50:1) and ethyl acetate/2,2,4-trimethylpentane/acetic acid/water (11:5:2:10, upper phase), respectively. Radioactive spots were detected by autoradiography and scraped off and counted using a liquid scintillation spectrometer. The activities of 5-lipoxygenase and cyclooxygenase were expressed as the sum of radioactivities due to 5-HETE and 5,12-diHETE and due to PGD2, PGE2 and PGF2α, respectively. The IC 50 values were calculated by Probit method.

[4] = target: T1, 5-lipoxygenase (Mus musculus, UniProt P48999); experiment: Assay of 5-lipoxygenase; assay type: biochemical; conditions: enzyme fraction from mastocytoma P-815 cells, [1-14C]-arachidonic acid, 37° C., 5 min; Probit method; read-out: IC 50 5-Lipoxygenase
T1 construct: endogenous in cells
T1 sequence (P48999 1-674): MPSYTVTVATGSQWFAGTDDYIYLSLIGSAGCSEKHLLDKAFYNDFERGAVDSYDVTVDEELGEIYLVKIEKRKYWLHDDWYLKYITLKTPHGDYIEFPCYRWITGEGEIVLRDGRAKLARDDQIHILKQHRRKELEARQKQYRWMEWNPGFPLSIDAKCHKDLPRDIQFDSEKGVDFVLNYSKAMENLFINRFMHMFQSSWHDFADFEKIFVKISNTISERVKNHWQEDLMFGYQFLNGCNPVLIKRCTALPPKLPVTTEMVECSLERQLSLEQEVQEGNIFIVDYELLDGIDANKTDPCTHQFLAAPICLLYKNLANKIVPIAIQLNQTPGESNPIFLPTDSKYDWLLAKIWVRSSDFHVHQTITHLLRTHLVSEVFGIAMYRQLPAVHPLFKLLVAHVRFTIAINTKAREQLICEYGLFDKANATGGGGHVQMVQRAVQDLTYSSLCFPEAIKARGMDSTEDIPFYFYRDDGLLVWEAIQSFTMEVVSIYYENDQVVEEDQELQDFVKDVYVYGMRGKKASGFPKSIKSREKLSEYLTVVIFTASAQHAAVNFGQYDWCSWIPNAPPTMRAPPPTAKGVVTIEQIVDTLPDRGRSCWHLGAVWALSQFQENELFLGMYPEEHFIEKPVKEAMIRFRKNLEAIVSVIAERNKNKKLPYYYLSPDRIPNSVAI
Experimental: as §1, §2

SMILES | inhibition at 0.1 mg/kg [1] [%] | inhibition at 0.1 mg/kg [2] [%] | IC 50 Cyclooxygenase [3] | pIC50 [4] | pIC50 [3] | inhibition of histamine release (selectivity versus SRS-A) ([2]; rat PPA)
CCCCCC(C)C(=O)C=Cc1ccc(O)c(O)c1 (centres unmarked) [Example 29, 1-(3,4-dihydroxyphenyl)-4-methyl-1-nonen-3-one] | 38.2 | -32.4 | – | – | – | –
CCCCC(C)C(O)CCc1ccc(O)c(O)c1 (centres unmarked) [Example 1, 1-(3,4-dihydroxyphenyl)-4-methyl-3-octanol] | 76.6 | 37.8 | En- hanced | 6.52 | – | –
CCCCCCCCCC(=O)Cc1ccc(O)c(O)c1 [Example 14, 1-(3,4-dihydroxyphenyl)-2-undecanone] | 58.9 | 32.7 | – | – | – | –
CC(=O)CCCCCCCc1ccc(O)c(O)c1 [Example 20, 9-(3,4-dihydroxyphenyl)-2-nonanone] | 62.8 | 17.9 | – | 6.64 | – | –
CCCCCCCCC(O)CCc1ccc(O)c(O)c1 (centres unmarked) [Example 9, 1-(3,4-Dihydroxyphenyl)-3-undecanol] | 53.6 | 21.6 | – | 7.00 | < 5.00 | –
CCCCCCC(O)CCCc1ccc(O)c(O)c1 (centres unmarked) [Example 15, 1-(3,4-dihydroxyphenyl)-4-decanol] | 46.2 | 18.4 | – | – | – | –
OCCCCCCCCCCCc1ccc(O)c(O)c1 [Example 23, 11-(3,4-dihydroxyphenyl)-1-undecanol] | 69.6 | 10.7 | – | 7.27 | < 5.00 | –
OCCCCCCCCCc1ccc(O)c(O)c1 [Example 25A, 9-(3,4-Dihydroxyphenyl)-1-nonanol] | 43.9 | -8.3 | – | – | – | –
CCCCCC(C)C(O)CCc1ccc(O)c(O)c1 (centres unmarked) [Example 11, 1-(3,4-Dihydroxyphenyl)-4-methyl-3-nonanol] | 66.6 | 17.6 | – | – | – | –
O=C(O)c1cc(=O)c2c(OCC(O)COc3cccc4oc(C(=O)O)cc(=O)c34)cccc2o1 [DSCG, disodium cromoglycate, reference compound] | 46.6 | 75.2 | – | – | – | inhibited the histamine release in a relatively selective manner
CCCCCCC(=O)CCc1ccc(O)c(O)c1 [Example 3, 1-(3,4-dihydroxyphenyl)-3-nonanone] | 53.9 | 22.6 | – | – | – | –
CCCCCCC(O)CCc1ccc(O)c(O)c1 (centres unmarked) [Example 2, 1-(3,4-dihydroxyphenyl)-3-nonanol] | 57.3 | 5.2 | – | – | – | –
